Experimental data published in US20040175737A1, “Assay for RNase H activity” (Wyeth, priority 2002, published 2004).

Target: T1, HIV RT RNase H (Human immunodeficiency virus type 1 group M subtype B, UniProt P04585)
T1 construct: HIV p66/p51 heterodimer; purchased Enzyco, Inc. (Replidyne Inc., Louisville Colo.)
Experiment: PAGE-based endpoint assay for HIV RT RNase H activity, titrated with single stranded RNA or DNA contaminants
Assay type: biochemical
Settings: 5, 10 and 50 pmol RNA; molar ratios to RNA-DNA hybrid substrate 1:1, 2:1 and 10:1; 1 U HIV RT enzyme; 37° C.
Text: RNase H. Samples of HIV p66/p51 heterodimer were obtained from Enzyco, Inc. (Replidyne Inc., Louisville Colo.) Methods for the recombinant expression, purification and characterization of this enzyme have been previously described (Thimmig & McHenry, J. Biol. Chem. 1993, 268:16528-16536). Purity of the enzyme samples was verified on polyacrylamide gels. […] Samples of E. coli RNase H1 were purchased from EPICENTR (Madison, Wis.).
Radiolabled RNA was generated by incorporating ^33P-ATP in the T7 RNA polymerase reaction, and annealed to an unlabeled ssDNA 49mer having the nucleotide sequence set forth in SEQ ID NO:2 (shown below). In an alternative version of these experiments, the complementary DNA oligonucleotide (SEQ ID NO:2) was radiolabeled with ^33P at the 5′ end by T4 PNK, and annealed to the unlabeled 29mer ssRNA (SEQ ID NO: 1).
Time dependent RNA degradation by RNase H. Aliquots containing 0.5 pmol of the radio-labeled DNA-RNA substrate ([…]) were incubated in Tris buffer (pH 8) with 10 mM MgCl2, KCl (between 0 and 30 mM), 3% glycerol, 0.2% NP-40, 50 μg/ml BSA and 1 mM DTT. […] The reaction products were analyzed by PAGE. […]

## homopolymeric U: homopolymeric polyU, 5′-(U)n-3′, n ≈ 500 to 1000, SEQ ID NO:4
  inhibition of HIV RT RNase H activity (measured amount of end-labeled ssDNA after reaction): did not inhibit

## homopolymeric A: homopolymeric polyA, 5′-(A)n-3′, n ≈ 500 to 1000, SEQ ID NO:3
  inhibition of HIV RT RNase H activity (measured amount of end-labeled ssDNA after reaction): did not inhibit
